According to patent US11220482B2, “Aminopyridinemethanol compounds and their use” (UNIVERSITE AMIENS PICARDIE JULES VERNE, priority 2017, dated 2022):
Like-named read-outs stand apart in the source and are kept apart here.

Tests used:
Salmonella strains = assay: Bacterial reverse mutation assay (Ames test), overall conclusion; format: cell-based, S. typhimurium; conditions: all tested doses, absence or presence of the metabolizing mixture
Protocol: Five strains of S. typhimurium were used. […] An additional strain has been chosen to detect cross-linking mutagens, hydrazines and oxidative agents: TA102, which have an AT base pair at the primary reversion site. Salmonella tester strains were gifts from Prof. B. N. Ames (Berkeley, Calif., USA). They were stored at −80° C. and regularly checked for genetic markers.
Few crystals of the frozen working strains were taken with a sterile pipette, and seeded in 10 mL of nutrient broth (NB No 2, Oxoid). Strains were grown overnight at 37° C. with shaking in Nutrient Broth No. 2, with ampicillin (25 μg/mL) for TA1535, TA97a, TA98, and TA 100, or ampicillin (25 μg/mL) plus tetracyclin (2 μg/mL) for TA 102. At the end of the incubation period, 0.1 mL of each overnight culture was mixed to 0.1 mL S9 Mix or 0.1 mL phosphate-buffered saline (PBS, pH 7.4) in 5 mL plastic tubes and various volumes of the tested samples were added to the mixtures. Each experiment included triplicate plates of four tested doses. A solvent (DMSO, 10 μL) control was added to determine the spontaneous frequency of revertants (quadruple plates). Five positive controls were also included to ensure the performance of the tester strains and the S9 Mix. […] After hardening, the plates were incubated at 37° C. for 48 hours.
At the end of the incubation period, revertants were counted with a laser colony counter equipped with a bacterial enumeration program (Spiral System Instrument Inc., Bethesda, Md., USA).
The Dunnett test was performed to determine a significant difference between the mean number of induced revertants and the mean number of spontaneous revertants.

S. typhimurium TA98 = assay: Bacterial reverse mutation assay (Ames test)
Plasmodium falciparum W2 = assay: Plasmodium falciparum susceptibility assay, first round (SYBR Green I); format: cell-based; conditions: W2, first round, 48-h incubation, strain resistant to CQ, sensitive to MQ, read-out: IC50 (nM) Plasmodium falciparum W2 (converted)
CHO-K1 cells [1] = conditions: Chinese hamster, 24 h
Protocol: All the assays were conducted in duplicate. The CHO-K1 cells, suspended in Mac Coy's 5A medium, were transferred into Labteck wells at a concentration of 100,000 cells/mL, and incubated for 24 hours at 37° C. in CO2 (5%).
The test was performed without metabolic activation: the test substances were added into cell cultures at concentrations previously defined. […] After 24 hours of incubation at 37° C. in CO2 (5%), the culture medium was removed, the cells were rinsed with phosphate buffered saline (PBS), and then returned in culture medium containing […] of cytochalasine B. After a 24-hour incubation period at 37° C., cells were rinsed with phosphate buffered saline (PBS), fixed with methanol and stained with 10% Giemsa for 20 minutes.
(§1) The analysis of results was performed under a microscope at ×1000 magnification. The antiproliferative activity of test substances was estimated by counting the number of binucleated cells relative to the number of mononucleated cells on a total of 500 cells for each dose (250 cells counted per well). The proliferation index (Cytokinesis Blocked Proliferative Index CBPI) was calculated using the following formula:
(§2) The cytostasis index (CI %), i.e. the percentage of cell replication inhibition, was calculated using the following formula: CI %−100−{100×(CBPItest material−1)/(CBPIsolvent control−1)}
(§3) The rates of micronuclei were evaluated for the presence of independent nuclear core entities in 1000 binucleated cells per well, which corresponds to 2000 cells examined by test substance dose. Micronuclei were identified as small nuclei well differentiated from cell nucleus, stained in the same manner and having a diameter less than one third of that of the cell nucleus.
(§4) Micronuclei rates obtained for different doses of test substances were compared to the negative control by a χ2 test. The assay was considered positive if: • A dose-response relationship was obtained between the rate of micronuclei and the doses tested, • At least one of these doses induced a statistically significant increase (P<0.05) in the number of micronucleated cells as compared to the negative control.

[2] = system: Plasmodium falciparum 3D7; assay: Plasmodium falciparum susceptibility assay, first round (SYBR Green I); format: cell-based; conditions: 3D7, first round, 48-h incubation, strain susceptible to CQ, decreased susceptibility to MQ, read-out: IC50 (nM) Plasmodium falciparum 3D7 (converted)
CHO-K1 cells [3] = assay: In vitro micronucleus assay, short-term exposure
Protocol: All the assays were conducted in duplicate. The CHO-K1 cells, suspended in McCoy's 5A medium, were transferred into Labteck wells at a concentration of 100,000 cells/mL, and incubated for 24 hours at 37° C. in CO2 (5%).
When the test was performed without metabolic activation, the test substances were added into cell cultures at concentrations previously defined.
When the assay was performed in the presence of metabolic activation, S9 mix metabolizing mixture was added to cell cultures at a concentration of 10%. Then the test substances were added to the cell cultures at concentrations previously defined.
After 3 hours of incubation at 37° C. in CO2 (5%), the culture medium was removed, the cells were rinsed with phosphate buffered saline (PBS), and then returned to culture in McCoy's 5A medium containing […] of cytochalasin B. After a 21-hour incubation period at 37° C., cells were rinsed with phosphate buffered saline (PBS), fixed with methanol and stained with 10% Giemsa for 20 minutes.
as §1, §2, §3, §4

In the case of COC[C@H](Cc1ccccc1)NC[C@@H](O)c1cc(-c2ccc(C(F)(F)F)cc2)nc(C(F)(F)F)c1 [Compound 1i, (S)-2-(((S)-1-Methoxy-3-phenylpropan-2-yl)amino)-1-(2-(trifluoromethyl)-6-(4-(trifluoromethyl)phenyl)pyridin-4-yl)ethanol], the “mutagenic activity in Salmonella strains (revertant rates)” value (Salmonella strains) is reported as “No significant increase in revertant rates”, the “Number of revertants by plate (Means ± SD), TA102” value (“Number … (Means ± SD), TA102” below) (S. typhimurium TA102; with S9 mix, 0.4 μg/plate) is reported as 351 ± 6^NS and the “Number … (Means ± SD), TA102” value (S. typhimurium TA102; with S9 mix, 0.6 μg/plate) is reported as 355 ± 16^NS. For the same molecule, the “Number … (Means ± SD), TA102” value (S. typhimurium TA102; with S9 mix, 0.8 μg/plate) was 376 ± 10^NS, the “Number … (Means ± SD), TA102” value (S. typhimurium TA102; with S9 mix, 1 μg/plate) was 362 ± 4^NS and the “Number … (Means ± SD), TA102” value (S. typhimurium TA102; without S9 mix, 0.4 μg/plate) was 332 ± 19^NS. For the same molecule, the “Number … (Means ± SD), TA102” value (S. typhimurium TA102; without S9 mix, 0.6 μg/plate) was 293 ± 4^NS, the “Number … (Means ± SD), TA102” value (S. typhimurium TA102; without S9 mix, 0.8 μg/plate) was 328 ± 14^NS and the “Number … (Means ± SD), TA102” value (S. typhimurium TA102; without S9 mix, 1 μg/plate) was 347 ± 11^NS. The “Number of revertants by plate (Means ± SD), TA98” value (“Number … (Means ± SD), TA98” below) (S. typhimurium TA98; with S9 mix, 0.4 μg/plate) was 24 ± 2^NS, the “Number … (Means ± SD), TA98” value (S. typhimurium TA98; with S9 mix, 0.6 μg/plate) was 18 ± 3^NS and the “Number … (Means ± SD), TA98” value (S. typhimurium TA98; with S9 mix, 0.8 μg/plate) was 17 ± 1^NS. The “Number … (Means ± SD), TA98” value (S. typhimurium TA98; with S9 mix, 1 μg/plate) was 20 ± 2^NS, the “Number … (Means ± SD), TA98” value (S. typhimurium TA98; without S9 mix, 0.4 μg/plate) was 32 ± 3^NS and the “Number … (Means ± SD), TA98” value (S. typhimurium TA98; without S9 mix, 0.6 μg/plate) was 33 ± 3^NS. The “Number … (Means ± SD), TA98” value (S. typhimurium TA98; without S9 mix, 0.8 μg/plate) was 33 ± 3^NS, the “Number … (Means ± SD), TA98” value (S. typhimurium TA98; without S9 mix, 1 μg/plate) was 34 ± 7^NS and the “Number of revertants by plate (Means ± SD), TA100” value (shortened to “Number … (Means ± SD), TA100”) (S. typhimurium TA100; with S9 mix, 0.4 μg/plate) was 191 ± 11^NS. For the same molecule, the “Number … (Means ± SD), TA100” value (S. typhimurium TA100; with S9 mix, 0.6 μg/plate) was 173 ± 10^NS, the “Number … (Means ± SD), TA100” value (S. typhimurium TA100; with S9 mix, 0.8 μg/plate) was 182 ± 10^NS and the “Number … (Means ± SD), TA100” value (S. typhimurium TA100; with S9 mix, 1 μg/plate) was 174 ± 10^NS. For the same molecule, the “Number … (Means ± SD), TA100” value (S. typhimurium TA100; without S9 mix, 0.4 μg/plate) was 200 ± 7^NS, the “Number … (Means ± SD), TA100” value (S. typhimurium TA100; without S9 mix, 0.6 μg/plate) was 199 ± 10^NS and the “Number … (Means ± SD), TA100” value (S. typhimurium TA100; without S9 mix, 0.8 μg/plate) was 209 ± 17^NS. The “Number … (Means ± SD), TA100” value (S. typhimurium TA100; without S9 mix, 1 μg/plate) was 205 ± 21^NS, the “Number of revertants by plate (Means ± SD), TA97a” value (from here on “Number … (Means ± SD), TA97a”) (S. typhimurium TA97a; with S9 mix, 0.4 μg/plate) was 132 ± 11^NS and the “Number … (Means ± SD), TA97a” value (S. typhimurium TA97a; with S9 mix, 0.6 μg/plate) was 137 ± 2^NS. The “Number … (Means ± SD), TA97a” value (S. typhimurium TA97a; with S9 mix, 0.8 μg/plate) was 127 ± 9^NS, the “Number … (Means ± SD), TA97a” value (S. typhimurium TA97a; with S9 mix, 1 μg/plate) was 124 ± 4^NS and the “Number … (Means ± SD), TA97a” value (S. typhimurium TA97a; without S9 mix, 0.4 μg/plate) was 153 ± 5^NS. The “Number … (Means ± SD), TA97a” value (S. typhimurium TA97a; without S9 mix, 0.6 μg/plate) was 163 ± 4^NS, the “Number … (Means ± SD), TA97a” value (S. typhimurium TA97a; without S9 mix, 0.8 μg/plate) was 164 ± 5^NS and the “Number … (Means ± SD), TA97a” value (S. typhimurium TA97a; without S9 mix, 1 μg/plate) was 144 ± 11^NS. For the same molecule, the IC50 (Plasmodium falciparum W2) was 28.8 ± 3.8 nM, the “Number of revertants by plate (Means ± SD), TA1535” value (“Number … (Means ± SD), TA1535” for short) (S. typhimurium TA1535; with S9 mix, 0.4 μg/plate) was 23 ± 6^NS and the “Number … (Means ± SD), TA1535” value (S. typhimurium TA1535; with S9 mix, 0.6 μg/plate) was 29 ± 4^NS. For the same molecule, the “Number … (Means ± SD), TA1535” value (S. typhimurium TA1535; with S9 mix, 0.8 μg/plate) was 27 ± 5^NS, the “Number … (Means ± SD), TA1535” value (S. typhimurium TA1535; with S9 mix, 1 μg/plate) was 29 ± 9^NS and the “Number … (Means ± SD), TA1535” value (S. typhimurium TA1535; without S9 mix, 0.4 μg/plate) was 22 ± 4^NS. For the same molecule, the “Number … (Means ± SD), TA1535” value (S. typhimurium TA1535; without S9 mix, 0.6 μg/plate) was 29 ± 6^NS, the “Number … (Means ± SD), TA1535” value (S. typhimurium TA1535; without S9 mix, 0.8 μg/plate) was 28 ± 5^NS and the “Number … (Means ± SD), TA1535” value (S. typhimurium TA1535; without S9 mix, 1 μg/plate) was 20 ± 4^NS. The “BI (binucleated cells)” value (CHO-K1 cells [1]; 5 μM) was 402, the “CBPI (Cytokinesis-Blocked Proliferative Index)” value (CHO-K1 cells [1]; 5 μM) was 1.81 and the “CI % (cytostasis index)” value (CHO-K1 cells [1]; 5 μM) was 13%. The “MNC1 (micronucleated cell rate)” value (CHO-K1 cells [1]; 5 μM) was 9 ‰, the “MNC2 (micronucleated cell rate)” value (CHO-K1 cells [1]; 5 μM) was 11 ‰ and the “MNC-M (mean of micronucleated cell rates)” value (from here on “MNC-M”) (CHO-K1 cells [1]; 5 μM) was 10 ± 1.4 ‰. For the same molecule, the “MONO (mononucleated cells)” value (CHO-K1 cells [1]; 5 μM) was 98, the “BI (binucleated cells)” value (CHO-K1 cells [1]; 10 μM) was 308 and the “CBPI (Cytokinesis-Blocked Proliferative Index)” value (CHO-K1 cells [1]; 10 μM) was 1.62. For the same molecule, the “CI % (cytostasis index)” value (CHO-K1 cells [1]; 10 μM) was 34%, the “MNC1 (micronucleated cell rate)” value (CHO-K1 cells [1]; 10 μM) was 10 ‰ and the “MNC2 (micronucleated cell rate)” value (CHO-K1 cells [1]; 10 μM) was 12 ‰. For the same molecule, the “MNC-M” value (CHO-K1 cells [1]; 10 μM) was 11 ± 1.4 ‰, the “MONO (mononucleated cells)” value (CHO-K1 cells [1]; 10 μM) was 192 and the “BI (binucleated cells)” value (CHO-K1 cells [1]; 50 μM) was 214. The “CBPI (Cytokinesis-Blocked Proliferative Index)” value (CHO-K1 cells [1]; 50 μM) was 1.42, the “CI % (cytostasis index)” value (CHO-K1 cells [1]; 50 μM) was 57% and the “MNC1 (micronucleated cell rate)” value (CHO-K1 cells [1]; 50 μM) was 11 ‰. The “MNC2 (micronucleated cell rate)” value (CHO-K1 cells [1]; 50 μM) was 9 ‰, the “MNC-M” value (CHO-K1 cells [1]; 50 μM) was 10 ± 1.4 ‰ and the “MONO (mononucleated cells)” value (CHO-K1 cells [1]; 50 μM) was 286. For the same molecule, the IC50 [2] was 28.3 ± 1.5 nM and the “in vitro micronucleus assay result (clastogenic and/or aneugenic activities)” value (CHO-K1 cells [3]) was “negative results”.
